Experimental data from the NIST ThermoML archive (doi:10.1016/j.fluid.2019.06.022).
Several values for one entry are separate records, joined by “and”; a condition that tells them apart may be missing. Equal entries are not always repeated. ± gives the expanded uncertainty stated by the source.

Experiment: xn = mol fraction of the nth substance listed
Settings: Liquid; for mass density: Bellows volumetry; for viscosity: Falling or rolling sphere viscometry

C=C [ethene] + Cc1ccccc1
Settings | mass density, x1 = 0.1131 [kg/m3] | mass density, x1 = 0.3241 | viscosity, x1 = 0.1131 | viscosity, x1 = 0.3241
295.4 K, 2700 kPa | 815.8 ± 20 | – | 0.474 ± 0.019 mPa·s | –
295.4 K, 2800 kPa | 815.8 ± 20 | – | 0.474 ± 0.019 mPa·s | –
295.4 K, 11400 kPa | 823.1 ± 20 | – | 0.508 ± 0.021 mPa·s | –
295.4 K, 11500 kPa | 823.1 ± 20 | – | 0.509 ± 0.021 mPa·s | –
295.4 K, 20400 kPa | 829.9 ± 20 | – | 0.551 ± 0.022 mPa·s | –
295.4 K, 20500 kPa | 829.9 ± 20 | – | 0.548 ± 0.022 mPa·s | –
295.4 K, 36200 kPa | 840.8 ± 20 | – | 0.614 ± 0.025 mPa·s and 0.615 ± 0.025 mPa·s | –
298 K, 3400 kPa | – | 754.7 ± 18 kg/m3 | – | 0.309 ± 0.013 mPa·s
298 K, 3700 kPa | – | 754.7 ± 18 kg/m3 | – | 0.312 ± 0.013 mPa·s
298 K, 10000 kPa | – | 767.2 ± 18 kg/m3 | – | 0.328 ± 0.013 mPa·s and 0.332 ± 0.014 mPa·s
298 K, 22000 kPa | – | 778.9 ± 19 kg/m3 | – | 0.36 ± 0.015 mPa·s and 0.364 ± 0.015 mPa·s
298 K, 22300 kPa | – | 778.9 ± 19 kg/m3 | – | 0.362 ± 0.015 mPa·s
298 K, 22400 kPa | – | 778.9 ± 19 kg/m3 | – | 0.366 ± 0.015 mPa·s
298 K, 35100 kPa | – | 789.8 ± 19 kg/m3 | – | 0.402 ± 0.016 mPa·s and 0.398 ± 0.016 mPa·s
298 K, 48000 kPa | – | 799.7 ± 19 kg/m3 | – | 0.434 ± 0.018 mPa·s and 0.439 ± 0.018 mPa·s
298 K, 68400 kPa | – | 813.3 ± 20 kg/m3 | – | 0.496 ± 0.022 mPa·s
298 K, 68500 kPa | – | 813.3 ± 20 kg/m3 | – | 0.5 ± 0.022 mPa·s
322.1 K, 4200 kPa | 792.1 ± 19 | – | 0.36 ± 0.015 mPa·s and 0.361 ± 0.015 mPa·s | –
322.1 K, 10200 kPa | 798.1 ± 19 | – | 0.376 ± 0.015 mPa·s and 0.377 ± 0.015 mPa·s | –
322.1 K, 21200 kPa | 808 ± 19 | – | 0.415 ± 0.017 mPa·s | –
322.1 K, 34400 kPa | 819.1 ± 20 | – | 0.442 ± 0.018 mPa·s | –
322.1 K, 34500 kPa | 819.1 ± 20 | – | 0.452 ± 0.018 mPa·s | –
322.1 K, 48100 kPa | 828.1 ± 20 | – | 0.495 ± 0.02 mPa·s | –
322.1 K, 48200 kPa | 828.5 ± 20 | – | 0.498 ± 0.02 mPa·s and 0.497 ± 0.02 mPa·s | –
322.1 K, 65900 kPa | 840 ± 20 | – | 0.556 ± 0.023 mPa·s and 0.55 ± 0.022 mPa·s | –
322.2 K, 7200 kPa | – | 739.3 ± 18 kg/m3 | – | 0.25 ± 0.01 mPa·s and 0.253 ± 0.01 mPa·s
322.2 K, 14700 kPa | – | 748.2 ± 18 kg/m3 | – | 0.268 ± 0.011 mPa·s and 0.27 ± 0.011 mPa·s
322.2 K, 21700 kPa | – | 756.1 ± 18 kg/m3 | – | 0.288 ± 0.012 mPa·s
322.2 K, 21800 kPa | – | 756.1 ± 18 kg/m3 | – | 0.283 ± 0.012 mPa·s
322.2 K, 34300 kPa | – | 768.4 ± 18 kg/m3 | – | 0.313 ± 0.013 mPa·s
322.2 K, 34500 kPa | – | 768.4 ± 18 kg/m3 | – | 0.317 ± 0.013 mPa·s
322.2 K, 48300 kPa | – | 780.5 ± 19 kg/m3 | – | 0.344 ± 0.014 mPa·s and 0.348 ± 0.014 mPa·s
322.2 K, 68800 kPa | – | 795.9 ± 19 kg/m3 and 795.8 ± 19 kg/m3 | – | 0.391 ± 0.016 mPa·s and 0.397 ± 0.016 mPa·s
368.1 K, 6800 kPa | – | 692.1 ± 17 kg/m3 | – | 0.171 ± 0.007 mPa·s and 0.169 ± 0.007 mPa·s
368.1 K, 13800 kPa | – | 704 ± 17 kg/m3 | – | 0.182 ± 0.007 mPa·s
368.1 K, 13900 kPa | – | 704 ± 17 kg/m3 | – | 0.185 ± 0.008 mPa·s
368.1 K, 26500 kPa | – | 721.7 ± 17 kg/m3 and 720.9 ± 17 kg/m3 | – | 0.205 ± 0.009 mPa·s and 0.208 ± 0.008 mPa·s
368.1 K, 26600 kPa | – | 720.8 ± 17 kg/m3 and 721.6 ± 17 kg/m3 | – | 0.207 ± 0.009 mPa·s and 0.208 ± 0.009 mPa·s
368.1 K, 41800 kPa | – | 736.7 ± 18 kg/m3 | – | 0.234 ± 0.01 mPa·s
368.1 K, 42100 kPa | – | 736.7 ± 18 kg/m3 | – | 0.235 ± 0.01 mPa·s
368.1 K, 54100 kPa | – | 749.3 ± 18 kg/m3 | – | 0.254 ± 0.01 mPa·s and 0.255 ± 0.01 mPa·s
368.1 K, 54300 kPa | – | 749.3 ± 18 kg/m3 | – | 0.253 ± 0.01 mPa·s and 0.256 ± 0.01 mPa·s
368.1 K, 68200 kPa | – | 761.9 ± 18 kg/m3 | – | 0.278 ± 0.011 mPa·s and 0.279 ± 0.011 mPa·s
369.3 K, 4200 kPa | 748.1 ± 18 | – | 0.235 ± 0.01 mPa·s | –
369.3 K, 4300 kPa | 748.1 ± 18 | – | 0.236 ± 0.01 mPa·s | –
369.3 K, 10200 kPa | 755.4 ± 18 | – | 0.251 ± 0.011 mPa·s | –
369.3 K, 10300 kPa | 755.4 ± 18 | – | 0.25 ± 0.011 mPa·s | –
369.3 K, 20700 kPa | 767.5 ± 18 | – | 0.273 ± 0.011 mPa·s | –
369.3 K, 20800 kPa | 767.5 ± 18 | – | 0.273 ± 0.011 mPa·s | –
369.3 K, 34800 kPa | 781.7 ± 19 | – | 0.305 ± 0.012 mPa·s and 0.304 ± 0.012 mPa·s | –
369.3 K, 48700 kPa | 794.3 ± 19 | – | 0.335 ± 0.014 mPa·s | –
369.3 K, 48800 kPa | 794.3 ± 19 | – | 0.335 ± 0.014 mPa·s | –
369.3 K, 68400 kPa | 809.5 ± 19 | – | 0.382 ± 0.016 mPa·s | –
369.3 K, 68500 kPa | 809.5 ± 19 | – | 0.379 ± 0.015 mPa·s | –
435.9 K, 15500 kPa | – | 638 ± 15 kg/m3 | – | 0.126 ± 0.005 mPa·s
435.9 K, 15900 kPa | – | 637.9 ± 15 kg/m3 | – | 0.126 ± 0.005 mPa·s
435.9 K, 27600 kPa | – | 662 ± 16 kg/m3 | – | 0.146 ± 0.006 mPa·s
435.9 K, 27700 kPa | – | 662 ± 16 kg/m3 | – | 0.144 ± 0.006 mPa·s
435.9 K, 41800 kPa | – | 685.4 ± 16 kg/m3 | – | 0.165 ± 0.007 mPa·s
435.9 K, 42000 kPa | – | 685.3 ± 16 kg/m3 and 685.5 ± 16 kg/m3 | – | 0.168 ± 0.007 mPa·s and 0.164 ± 0.007 mPa·s
435.9 K, 42200 kPa | – | 685.4 ± 16 kg/m3 | – | 0.166 ± 0.007 mPa·s
435.9 K, 56000 kPa | – | 703.4 ± 17 kg/m3 | – | 0.192 ± 0.008 mPa·s
435.9 K, 56200 kPa | – | 703.4 ± 17 kg/m3 | – | 0.188 ± 0.008 mPa·s
435.9 K, 68400 kPa | – | 716.8 ± 17 kg/m3 | – | 0.202 ± 0.008 mPa·s
435.9 K, 68500 kPa | – | 716.8 ± 17 kg/m3 | – | 0.199 ± 0.008 mPa·s
437 K, 3900 kPa | 678.2 ± 16 | – | 0.155 ± 0.006 mPa·s | –
437 K, 4200 kPa | 678.2 ± 16 | – | 0.153 ± 0.006 mPa·s | –
437 K, 13700 kPa | 699 ± 17 | – | 0.173 ± 0.007 mPa·s | –
437 K, 14100 kPa | 699.1 ± 17 | – | 0.172 ± 0.007 mPa·s | –
437 K, 27600 kPa | 721 ± 17 | – | 0.196 ± 0.008 mPa·s | –
437 K, 27800 kPa | 721 ± 17 | – | 0.197 ± 0.008 mPa·s | –
437 K, 41400 kPa | 738.3 ± 18 | – | 0.22 ± 0.009 mPa·s | –
437 K, 41500 kPa | 738.3 ± 18 | – | 0.22 ± 0.009 mPa·s | –
437 K, 42400 kPa | 740 ± 18 | – | 0.222 ± 0.009 mPa·s | –
437 K, 42700 kPa | 740 ± 18 | – | 0.224 ± 0.009 mPa·s | –
437 K, 54200 kPa | 750.9 ± 18 | – | 0.242 ± 0.01 mPa·s | –
437 K, 54300 kPa | 750.9 ± 18 | – | 0.243 ± 0.01 mPa·s | –
437 K, 67900 kPa | 763.9 ± 18 | – | 0.264 ± 0.011 mPa·s | –
522 K, 23100 kPa | – | 555.7 ± 13 kg/m3 | – | 0.097 ± 0.004 mPa·s
522 K, 23200 kPa | – | 555.5 ± 13 kg/m3 | – | 0.095 ± 0.004 mPa·s
522 K, 29400 kPa | – | 574.4 ± 14 kg/m3 and 574.7 ± 14 kg/m3 and 574.6 ± 14 kg/m3 | – | 0.102 ± 0.004 mPa·s and 0.104 ± 0.004 mPa·s
522 K, 29500 kPa | – | 574.4 ± 14 kg/m3 | – | 0.103 ± 0.004 mPa·s
522 K, 38300 kPa | – | 597 ± 14 kg/m3 [middle of 4 runs] | – | 0.114 ± 0.005 mPa·s [middle of 4 runs]
522 K, 50700 kPa | – | 621.2 ± 15 kg/m3 and 620.9 ± 15 kg/m3 | – | 0.125 ± 0.005 mPa·s and 0.126 ± 0.005 mPa·s
522 K, 50800 kPa | – | 621.2 ± 15 kg/m3 | – | 0.125 ± 0.005 mPa·s
522 K, 50900 kPa | – | 621.2 ± 15 kg/m3 | – | 0.123 ± 0.005 mPa·s
522 K, 68400 kPa | – | 645.9 ± 16 kg/m3 | – | 0.144 ± 0.006 mPa·s
522 K, 68700 kPa | – | 646 ± 16 kg/m3 | – | 0.142 ± 0.006 mPa·s
522.7 K, 9400 kPa | 581.8 ± 14 | – | 0.101 ± 0.004 mPa·s | –
522.7 K, 9800 kPa | 581.8 ± 14 | – | 0.103 ± 0.004 mPa·s | –
522.7 K, 31600 kPa | 643.4 ± 16 | – | 0.137 ± 0.006 mPa·s | –
522.7 K, 32000 kPa | 643.4 ± 16 | – | 0.131 ± 0.005 mPa·s | –
522.7 K, 32200 kPa | 643.5 ± 16 | – | 0.132 ± 0.005 mPa·s | –
522.7 K, 41200 kPa | 659.4 ± 16 | – | 0.15 ± 0.006 mPa·s | –
522.7 K, 41700 kPa | 659.4 ± 16 | – | 0.145 ± 0.006 mPa·s | –
522.7 K, 56200 kPa | 679.5 ± 16 | – | 0.167 ± 0.007 mPa·s | –
522.7 K, 56300 kPa | 679.4 ± 16 | – | 0.162 ± 0.007 mPa·s | –
522.7 K, 67600 kPa | 693.8 ± 17 | – | 0.179 ± 0.007 mPa·s | –
522.7 K, 68100 kPa | 693.8 ± 17 | – | 0.177 ± 0.007 mPa·s | –
